Laboratory results taken from US9399646B2 (Genentech, Inc., priority 2010, dated 2016).

How the values were obtained:
ER-α in MCF-7 cells = target: T1, ER-α in MCF-7 cells (Homo sapiens, UniProt P03372); test: Breast cancer cell ER-α in cell western assay (SP1); type: cell-based; parameters: endogenous in cells; host or cells: MCF-7; conditions: 4 or 24 hr post compound addition; for Emax: MCF7, SP1 antibody, read-out: ER-α In Cell Western Assay (SP1) Max Response; for DC50: SP1 antibody, read-out: ER-α In Cell Western Assay (SP1) IC50
T1 sequence (P03372 1-595): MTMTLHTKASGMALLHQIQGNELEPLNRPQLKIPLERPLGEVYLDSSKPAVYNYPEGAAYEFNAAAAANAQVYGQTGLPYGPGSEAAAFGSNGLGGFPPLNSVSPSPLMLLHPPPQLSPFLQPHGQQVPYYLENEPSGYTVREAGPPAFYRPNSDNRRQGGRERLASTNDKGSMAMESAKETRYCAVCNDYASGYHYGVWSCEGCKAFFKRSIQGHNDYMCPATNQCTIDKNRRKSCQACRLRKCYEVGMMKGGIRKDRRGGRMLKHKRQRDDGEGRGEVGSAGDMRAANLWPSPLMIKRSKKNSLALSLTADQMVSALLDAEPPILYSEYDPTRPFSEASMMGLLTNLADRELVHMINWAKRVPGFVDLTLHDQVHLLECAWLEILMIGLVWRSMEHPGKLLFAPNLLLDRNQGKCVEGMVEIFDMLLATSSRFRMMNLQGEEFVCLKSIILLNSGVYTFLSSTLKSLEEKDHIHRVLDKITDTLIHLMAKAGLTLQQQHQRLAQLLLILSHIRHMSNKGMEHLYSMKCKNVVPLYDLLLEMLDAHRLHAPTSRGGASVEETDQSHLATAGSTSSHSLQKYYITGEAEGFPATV
In short: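 ER-α protein levels were measured in MCF-7 cells after 4 or 24 hr compound exposure (final 0.3–0.000003 μM) in RPMI containing 10% charcoal-stripped FBS.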

MCF-7 cells = test: Breast cancer cell viability assay (CellTiter-Glo, 5 days); type: cell-based; conditions: 5 days' compound exposure; for IC50: Homo sapiens, MCF7, 120 h
In short: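 Eleven-point semilog compound series, final 0.3-0.000003 μM, added to overnight-adhered MCF-7 cells (320/well; RPMI, 10% FBS, 20 mM HEPES) for 5 days. Viability read by CellTiter-Glo luminescence, background from medium without cells subtracted, expressed relative to untreated cells.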

Emax (ER-α in MCF-7 cells)	DC50 (ER-α in MCF-7 cells)	IC50 (MCF-7 cells)	Structure (SMILES)	MCF7 Viability Assay Max Response (MCF-7 cells)
≥ 40%	≤ 100 nM	≤ 100 nM	CC/C(=C(/c1ccc(/C=C/C(=O)O)cc1)c1ccc2[nH]ncc2c1)c1cccc(Oc2ccc(C(F)(F)F)cn2)c1 [Compound 381, (E)-3-(4-((E)-1-(1H-Indazol-5-yl)-2-(3-((5-(trifluoromethyl)pyridin-2-yl)oxy)phenyl)but-1-en-1-yl)phenyl)acrylic acid]	++ (++ = a single % value ≧ 40%)
≥ 40%	≤ 100 nM	≤ 100 nM	CC/C(=C(/c1ccc(/C=C/C(=O)O)cc1)c1ccc2[nH]ncc2c1)c1cccc(Oc2ccc(C)nc2)c1 [Compound 382, (E)-3-(4-((E)-1-(1H-Indazol-5-yl)-2-(3-((6-methylpyridin-3-yl)oxy)phenyl)but-1-en-1-yl)phenyl)acrylic acid]	++ (++ = a single % value ≧ 40%)
≥ 40%	> 100 nM	> 100 nM	CC/C(=C(/c1ccc(/C=C/C(=O)O)cc1)c1ccc2[nH]ncc2c1)c1ccc(-c2cncnc2)cc1 [Compound 383, (E)-3-(4-((E)-1-(1H-Indazol-5-yl)-2-(4-(pyrimidin-5-yl)phenyl)but-1-en-1-yl)phenyl)acrylic acid]	++ (++ = a single % value ≧ 40%)
≥ 40%	> 100 nM	> 100 nM	CC/C(=C(/c1ccc(/C=C/C(=O)O)cc1)c1ccc2[nH]ncc2c1)c1ccc(-c2cnn(C)c2)cc1 [Compound 384, (E)-3-(4-((E)-1-(1H-Indazol-5-yl)-2-(4-(1-methyl-1H-pyrazol-4-yl)phenyl)but-1-en-1-yl)phenyl)acrylic acid]	++ (++ = a single % value ≧ 40%)
≥ 40%	≤ 100 nM	> 100 nM	CC/C(=C(/c1ccc(/C=C/C(=O)O)cc1)c1ccc2[nH]ncc2c1)c1ccc(-c2ccccn2)cc1 [Compound 385, (E)-3-(4-((E)-1-(1H-Indazol-5-yl)-2-(4-(pyridin-2-yl)phenyl)but-1-en-1-yl)phenyl)acrylic acid]	++ (++ = a single % value ≧ 40%)
≥ 40%	≤ 100 nM	> 100 nM	CC/C(=C(/c1ccc(/C=C/C(=O)O)cc1)c1ccc2[nH]ncc2c1)c1ccc(-c2ccsc2)cc1 [Compound 386, (E)-3-(4-((E)-1-(1H-Indazol-5-yl)-2-(4-(thiophen-3-yl)phenyl)but-1-en-1-yl)phenyl)acrylic acid]	++ (++ = a single % value ≧ 40%)
≥ 40%	≤ 100 nM	> 100 nM	CC/C(=C(/c1ccc(/C=C/C(=O)O)cc1)c1ccc2[nH]ncc2c1)c1ccc(-c2nccs2)cc1 [Compound 387, (E)-3-(4-((E)-1-(1H-Indazol-5-yl)-2-(4-(thiazol-2-yl)phenyl)but-1-en-1-yl)phenyl)acrylic acid]	++ (++ = a single % value ≧ 40%)
≥ 40%	≤ 100 nM	> 100 nM	CC/C(=C(/c1ccc(/C=C/C(=O)O)cc1)c1ccc2[nH]ncc2c1)c1ccc(-c2cscn2)cc1 [Compound 388, (E)-3-(4-((E)-1-(1H-Indazol-5-yl)-2-(4-(thiazol-4-yl)phenyl)but-1-en-1-yl)phenyl)acrylic acid]	++ (++ = a single % value ≧ 40%)
≥ 40%	≤ 100 nM	> 100 nM	CC/C(=C(/c1ccc(/C=C/C(=O)O)cc1)c1ccc2[nH]ncc2c1)c1ccc(-c2cnccn2)cc1 [Compound 389, (E)-3-(4-((E)-1-(1H-Indazol-5-yl)-2-(4-(pyrazin-2-yl)phenyl)but-1-en-1-yl)phenyl)acrylic acid]	++ (++ = a single % value ≧ 40%)
≥ 40%	≤ 100 nM	≤ 100 nM	CC/C(=C(/c1ccc(/C=C/C(=O)O)cc1)c1ccc2[nH]ncc2c1)c1cccc(-c2ccccn2)c1 [Compound 390, (E)-3-(4-((E)-1-(1H-Indazol-5-yl)-2-(3-(pyridin-2-yl)phenyl)but-1-en-1-yl)phenyl)acrylic acid]	++ (++ = a single % value ≧ 40%)
≥ 40%	≤ 100 nM	≤ 100 nM	CC/C(=C(/c1ccc(/C=C/C(=O)O)cc1)c1ccc2[nH]ncc2c1)c1cccc(-c2nccs2)c1 [Compound 391, (E)-3-(4-((E)-1-(1H-Indazol-5-yl)-2-(3-(thiazol-2-yl)phenyl)but-1-en-1-yl)phenyl)acrylic acid]	++ (++ = a single % value ≧ 40%)
≥ 40%	≤ 100 nM	≤ 100 nM	CC/C(=C(/c1ccc(/C=C/C(=O)O)cc1)c1ccc2[nH]ncc2c1)c1cccc(-c2cscn2)c1 [Compound 392, (E)-3-(4-((E)-1-(1H-Indazol-5-yl)-2-(3-(thiazol-4-yl)phenyl)but-1-en-1-yl)phenyl)acrylic acid]	++ (++ = a single % value ≧ 40%)
≥ 40%	≤ 100 nM	≤ 100 nM	CC/C(=C(/c1ccc(/C=C/C(=O)O)cc1)c1ccc2[nH]ncc2c1)c1cccc(-c2cccnc2)c1 [Compound 393, (E)-3-(4-((E)-1-(1H-Indazol-5-yl)-2-(3-(pyridin-3-yl)phenyl)but-1-en-1-yl)phenyl)acrylic acid]	++ (++ = a single % value ≧ 40%)
≥ 40%	≤ 100 nM	> 100 nM	CC/C(=C(/c1ccc(/C=C/C(=O)O)cc1)c1ccc2[nH]ncc2c1)c1cccc(-c2ccncc2)c1 [Compound 394, (E)-3-(4-((E)-1-(1H-Indazol-5-yl)-2-(3-(pyridin-4-yl)phenyl)but-1-en-1-yl)phenyl)acrylic acid]	++ (++ = a single % value ≧ 40%)
≥ 40%	≤ 100 nM	> 100 nM	CC/C(=C(/c1ccc(/C=C/C(=O)O)cc1)c1ccc2[nH]ncc2c1)c1ccc(-c2cnsc2)cc1 [Compound 395, (E)-3-(4-((E)-1-(1H-Indazol-5-yl)-2-(4-(isothiazol-4-yl)phenyl)but-1-en-1-yl)phenyl)acrylic acid]	++ (++ = a single % value ≧ 40%)
≥ 40%	> 100 nM	> 100 nM	CC/C(=C(/c1ccc(/C=C/C(=O)O)cc1)c1ccc2[nH]ncc2c1)c1ccc(N(C)c2ccccc2)cc1 [Compound 396, (E)-3-(4-((E)-1-(1H-Indazol-5-yl)-2-(4-(methyl(phenyl)amino)phenyl)but-1-en-1-yl)phenyl)acrylic acid & (E)-3-(4-((Z)-1-(1H-indazol-5-yl)-2-(4-(methyl(phenyl)amino)phenyl)but-1-en-1-yl)phenyl)acrylic acid (1:1 Mixture)]	++ (++ = a single % value ≧ 40%)
≥ 40%	≤ 100 nM	≤ 100 nM	CC/C(=C(/c1ccc(/C=C/C(=O)O)cc1)c1ccc2[nH]ncc2c1)c1ccc(Nc2ccccc2)cc1 [Compound 397, (E)-3-(4-((E)-1-(1H-Indazol-5-yl)-2-(4-(phenylamino)phenyl)but-1-en-1-yl)phenyl)acrylic acid]	++ (++ = a single % value ≧ 40%)
≥ 40%	≤ 100 nM	≤ 100 nM	CC/C(=C(/c1ccc(/C=C/C(=O)O)cc1)c1ccc2nn(C(F)F)cc2c1)c1ccc(F)cc1Cl [Compound 402, (E)-3-(4-((E)-2-(2-Chloro-4-fluorophenyl)-1-(2-(difluoromethyl)-2H-indazol-5-yl)but-1-en-1-yl)phenyl)acrylic acid]	++ (++ = a single % value ≧ 40%)
≥ 40%	≤ 100 nM	≤ 100 nM	CC/C(=C(/c1ccc(/C=C/C(=O)O)cc1)c1ccc2c(cnn2C(C)=O)c1)c1ccc(F)cc1Cl [Compound 403, (E)-3-(4-((E)-1-(1-Acetyl-1H-indazol-5-yl)-2-(2-chloro-4-fluorophenyl)but-1-en-1-yl)phenyl)acrylic acid]	++ (++ = a single % value ≧ 40%)
≥ 40%	≤ 100 nM	≤ 100 nM	CC/C(=C(/c1ccc(/C=C/C(=O)O)cc1)c1ccc2c(cnn2C(=O)C(C)C)c1)c1ccc(F)cc1Cl [Compound 404, (E)-3-(4-((E)-2-(2-Chloro-4-fluorophenyl)-1-(1-isobutyryl-1H-indazol-5-yl)but-1-en-1-yl)phenyl)acrylic acid]	++ (++ = a single % value ≧ 40%)
